Measurements taken from ChEMBL document CHEMBL1201862, “PubChem BioAssay data set” (2004).
Active and inactive are the calls of the source. For most assays here, no stated cut-off is given here; in the data, actives have a measured IC50 and inactives only a lower limit.

Tests used:
Tumor necrosis factor = Tumor necrosis factor (Homo sapiens, UniProt P01375); assay: TNFa-triggered NF-kB activation inhibitors, SAR follow-up, cell-based, revised (AID 2337); format: functional
[1] = molecular target: T1, Nucleotide-binding oligomerization domain-containing protein 1 (Homo sapiens, UniProt Q9Y239); assay: NOD1 signaling inhibitors, SAR follow-up, revised (AID 2333); format: functional
T1 sequence (Q9Y239 whole entry): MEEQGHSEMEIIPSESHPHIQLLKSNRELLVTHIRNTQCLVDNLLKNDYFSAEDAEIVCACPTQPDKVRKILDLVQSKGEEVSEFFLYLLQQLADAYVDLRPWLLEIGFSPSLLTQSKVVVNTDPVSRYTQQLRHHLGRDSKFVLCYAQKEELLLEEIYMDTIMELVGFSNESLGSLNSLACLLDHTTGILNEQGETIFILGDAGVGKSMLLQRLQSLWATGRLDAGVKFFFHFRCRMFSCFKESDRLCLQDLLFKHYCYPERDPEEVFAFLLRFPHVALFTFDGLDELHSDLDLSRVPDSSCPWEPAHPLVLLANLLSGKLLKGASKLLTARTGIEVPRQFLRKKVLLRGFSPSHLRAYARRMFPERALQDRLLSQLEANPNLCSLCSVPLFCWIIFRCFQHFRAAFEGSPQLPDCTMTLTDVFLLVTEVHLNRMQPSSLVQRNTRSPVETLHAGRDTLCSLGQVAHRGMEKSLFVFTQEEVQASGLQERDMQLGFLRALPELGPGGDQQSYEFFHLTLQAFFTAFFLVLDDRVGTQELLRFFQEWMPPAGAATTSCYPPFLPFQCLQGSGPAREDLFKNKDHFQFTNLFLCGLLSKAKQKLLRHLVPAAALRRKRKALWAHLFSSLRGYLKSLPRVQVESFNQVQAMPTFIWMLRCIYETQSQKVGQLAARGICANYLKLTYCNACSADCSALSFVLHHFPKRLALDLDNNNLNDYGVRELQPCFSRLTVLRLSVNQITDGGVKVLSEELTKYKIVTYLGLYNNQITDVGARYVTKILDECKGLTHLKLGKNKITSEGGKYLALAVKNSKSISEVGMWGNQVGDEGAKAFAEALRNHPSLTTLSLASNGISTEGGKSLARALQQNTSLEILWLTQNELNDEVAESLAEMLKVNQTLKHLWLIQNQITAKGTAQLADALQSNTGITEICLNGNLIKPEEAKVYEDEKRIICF

[2] = molecular target: Nucleotide-binding oligomerization domain-containing protein 2 (Homo sapiens, UniProt Q9HC29); assay: PubChem AID 2334; format: functional
Nucleotide-binding oligomerization domain-containing protein 2, sequence (Q9HC29 whole entry, the tested form may be a part): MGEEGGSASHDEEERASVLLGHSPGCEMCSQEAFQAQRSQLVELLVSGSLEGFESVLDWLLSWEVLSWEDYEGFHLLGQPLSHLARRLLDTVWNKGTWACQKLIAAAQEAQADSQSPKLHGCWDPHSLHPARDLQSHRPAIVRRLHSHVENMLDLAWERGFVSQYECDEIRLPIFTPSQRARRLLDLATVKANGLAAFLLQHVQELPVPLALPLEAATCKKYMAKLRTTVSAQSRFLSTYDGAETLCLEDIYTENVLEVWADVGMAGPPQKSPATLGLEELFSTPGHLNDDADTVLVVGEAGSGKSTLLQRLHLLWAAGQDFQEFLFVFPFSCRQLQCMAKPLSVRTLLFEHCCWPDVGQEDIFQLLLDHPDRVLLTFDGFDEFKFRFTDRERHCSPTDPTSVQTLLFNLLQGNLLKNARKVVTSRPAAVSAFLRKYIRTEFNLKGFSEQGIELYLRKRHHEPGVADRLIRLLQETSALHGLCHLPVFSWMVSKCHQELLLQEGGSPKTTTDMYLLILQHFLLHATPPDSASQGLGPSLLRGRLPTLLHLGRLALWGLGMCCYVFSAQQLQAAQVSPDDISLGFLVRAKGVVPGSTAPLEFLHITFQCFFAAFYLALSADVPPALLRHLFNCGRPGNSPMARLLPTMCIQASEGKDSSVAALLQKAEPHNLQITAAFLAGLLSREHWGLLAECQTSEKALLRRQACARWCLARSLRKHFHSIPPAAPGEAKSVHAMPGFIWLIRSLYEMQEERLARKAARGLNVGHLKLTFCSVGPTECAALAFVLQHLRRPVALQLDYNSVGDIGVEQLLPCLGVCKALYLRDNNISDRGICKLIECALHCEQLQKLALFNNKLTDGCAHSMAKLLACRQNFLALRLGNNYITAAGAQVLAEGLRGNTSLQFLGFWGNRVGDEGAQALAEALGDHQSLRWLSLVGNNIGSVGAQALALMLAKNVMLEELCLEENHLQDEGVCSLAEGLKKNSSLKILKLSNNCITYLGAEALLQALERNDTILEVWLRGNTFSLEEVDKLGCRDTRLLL

[3] = inhibitors of clade B AD8 Env fusion, dose response, cell-based, cherry-pick (AID 652062); format: functional;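 further: luciferase signal from cell-cell fusion driven by HIV-1 clade B AD8 Env; potency is for inhibitors of fusion seen as a drop in luminescence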
HEK293 = assay: cells; conditions: Homo sapiens;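 further: cells exposed to compound for 14 hours overnight before viability readout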
[4] = molecular target: Scavenger receptor class B member 1 (Mus musculus, UniProt Q61009); assay: inhibitors of SR-BI mediated HDL lipid uptake, dose response, ldlA[mSR-BI] cells, fluorescence, cherry pick (AID 493194); format: functional, cell-based;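 further: cellular uptake of fluorescent DiI-labeled HDL measured as cell fluorescence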
Scavenger receptor class B member 1, sequence (Q61009 whole entry): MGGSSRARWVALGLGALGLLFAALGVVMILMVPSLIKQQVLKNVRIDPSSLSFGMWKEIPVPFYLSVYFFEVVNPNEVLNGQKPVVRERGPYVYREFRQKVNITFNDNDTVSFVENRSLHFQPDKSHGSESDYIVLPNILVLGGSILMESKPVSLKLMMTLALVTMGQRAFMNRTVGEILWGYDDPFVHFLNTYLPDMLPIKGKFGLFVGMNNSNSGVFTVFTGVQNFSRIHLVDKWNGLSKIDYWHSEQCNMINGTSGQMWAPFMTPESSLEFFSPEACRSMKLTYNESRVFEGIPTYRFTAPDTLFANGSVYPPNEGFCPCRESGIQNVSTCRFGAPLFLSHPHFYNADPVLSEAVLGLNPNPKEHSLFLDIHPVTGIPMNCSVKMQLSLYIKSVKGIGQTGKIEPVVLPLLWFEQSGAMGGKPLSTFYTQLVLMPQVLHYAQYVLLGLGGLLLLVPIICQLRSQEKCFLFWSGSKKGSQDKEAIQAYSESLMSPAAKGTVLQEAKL

Tumor necrosis factor, sequence (P01375 whole entry, the tested form may be a part): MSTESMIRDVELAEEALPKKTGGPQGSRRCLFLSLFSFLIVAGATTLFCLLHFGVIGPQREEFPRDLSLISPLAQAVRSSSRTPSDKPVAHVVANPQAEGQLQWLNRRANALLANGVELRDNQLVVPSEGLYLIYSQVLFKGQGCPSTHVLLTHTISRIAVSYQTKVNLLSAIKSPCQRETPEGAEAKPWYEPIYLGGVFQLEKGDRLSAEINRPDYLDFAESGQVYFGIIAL

Row | Compound | IC50 (Tumor necrosis factor) | IC50 [1] | IC50 [2] | AC50 [3] | IC50 (HEK293) | AC50 [4]
1 | Cc1ccc(NC(=O)c2ccc(CN3CCc4ccccc4C3)cc2)cc1 | > 20 µM (inactive) | 3.44 µM (active) | > 20 µM (inactive) | 5.75 µM (active) | > 20 µM (inactive) | 
2 | COCc1cc(=O)oc2cc(NC(=O)c3ccc(C(C)(C)C)cc3)ccc12 |  |  |  |  |  | 50.2 µM (active)
